What was measured:
CYPIR (Rice Flatsedge) = test: Postemergence weed control under flooded paddy conditions; assay type: in vivo, Cyperus iria; settings: postemergence weeds
In short: (§1)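 Injury ratings (0–9 scale covering stand, vigor, malformation, size, chlorosis and overall appearance versus control) were made three to four weeks after treatment. Test material, about 0.0313 to 0.500 kg/ha a.i. in 50/50 v/v aqueous/acetone, was added to flood water 1.5 to 3 cm deep over 3 to 5 cm weeds and 1.5 to 2.5 leaf rice.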

ABUTH (Velvetleaf) = test: Postemergence herbicidal evaluation; assay type: in vivo, Abutilon theophrasti; settings: postemergence
In short: (§2)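 Herbicidal effect was judged by eye on a 0–9 scale covering stand, vigor, deformity, size and chlorosis, compared with controls, four to five weeks after seedlings about two weeks old were sprayed (40 psi, ~0.0156–0.500 kg/ha).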

[1] = test system: GLXMAW (Soybean, Williams); test: Postemergence herbicidal evaluation; assay type: in vivo, Glycine max, (L.) Merr. cv Williams; settings: postemergence
In short: as §2

GALAP (Galium) = test: Preemergence herbicidal evaluation; assay type: in vivo, Galium aparine; settings: rated 4-5 weeks after treatment; for GALAP rating: preemergence, 0-9 scale
In short: (§3)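 Each species is sown separately in potting soil over roughly an inch of soil before any emergence. The soil surface then receives an aqueous acetone spray delivering about 0.0156 to 0.500 kg/ha of compound. After four to five weeks, injury is scored from 0 to 9 relative to a control.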

AMBEL (Ragweed, Common) [2] = test: Preemergence herbicidal evaluation; assay type: in vivo, Ambrosia artemisifolia; settings: rated 4-5 weeks after treatment; for AMBEL rating: preemergence, 0-9 scale
In short: as §3

[3] = test system: CHEAL (Lambsquarters, Common); test: Preemergence herbicidal evaluation; assay type: in vivo, Chenopodium album; settings: rated 4-5 weeks after treatment; for CHEAL rating: preemergence, 0-9 scale
In short: as §3

AMBEL (Ragweed, Common) [4] = test: Postemergence herbicidal evaluation; assay type: in vivo, Ambrosia artemisifolia; settings: postemergence
In short: as §2

ZEAMX (Corn, Field) = test: Postemergence herbicidal evaluation; assay type: in vivo, Zea mays; settings: postemergence
In short: as §2

[5] = test system: CHEAL (Lambsquarters, Common); test: Postemergence herbicidal evaluation; assay type: in vivo, Chenopodium album; settings: postemergence
In short: as §2

CYPSE (Flatsedge) [6] = test: Postemergence weed control under flooded paddy conditions; assay type: in vivo, Cyperus serotinus; settings: postemergence weeds
In short: as §1

ECHCG (Barnyardgrass) = test: Postemergence herbicidal evaluation; assay type: in vivo, Echinochloa crus-galli; settings: postemergence
In short: as §2

ORYSAT (Rice, Tebonnet) = test: Postemergence herbicidal evaluation; assay type: in vivo, Oryza sativa, (L.) Tebonnet; settings: postemergence
In short: as §2

CASOB (Sicklepod) = test: Preemergence herbicidal evaluation; assay type: in vivo, Cassia obtusifolia; settings: rated 4-5 weeks after treatment; for CASOB rating: preemergence, 0-9 scale
In short: as §3

CYPSE (Flatsedge) [7] = test: Preemergence weed control under flooded paddy conditions; assay type: in vivo, Cyperus serotinus; settings: rated 3-4 weeks after treatment
In short: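 Seeds or propagules sown in top 0.5 cm of silt loam soil, flooded 1.5 to 3 cm above surface throughout. Compound in 50/50 v/v aqueous/acetone pipetted into flood water at about 0.0313 to 0.500 kg/ha. Visual 0-9 rating versus control after three to four weeks in greenhouse.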

[8] = Rate 0.0313 kg/ha, rated 3 to 4 weeks after treatment
[9] = Rate 0.0625 kg/ha, rated 3 to 4 weeks after treatment
[10] = Rate 0.1250 kg/ha, rated 3 to 4 weeks after treatment
[11] = Rate 0.2500 kg/ha, rated 3 to 4 weeks after treatment
[12] = rate 0.0313 kg/ha, 3-4 weeks after treatment
[13] = rate 0.0625 kg/ha, 3-4 weeks after treatment
[14] = rate 0.1250 kg/ha, 3-4 weeks after treatment
[15] = rate 0.2500 kg/ha, 3-4 weeks after treatment

CN1C(=O)C(CC(=O)Nc2ccccc2)SC1=Nc1cc(-n2c(=O)cc(C(F)(F)F)n(C)c2=O)c(F)cc1Cl (stereo not shown) [Compound 91, 2-{{2-Chloro-5-[3,6-dihydro-3-methyl-2,6-dioxo-4-(trifluoromethyl)-1(2H)-pyrimidinyl]-4-fluorophenyl}imino}-3-methyl-4-oxo-5-thiazolidineacetanilide]
Herbicidal rating CYPIR (CYPIR (Rice Flatsedge); [8]): 0.0 | Herbicidal rating CYPIR (CYPIR (Rice Flatsedge); [9]): 0.0 | Herbicidal rating CYPIR (CYPIR (Rice Flatsedge); [10]): 0.0 | Herbicidal rating CYPIR (CYPIR (Rice Flatsedge); [11]): 0.0 | ABUTH herbicidal rating (ABUTH (Velvetleaf); rate 0.0158 kg/ha): 7.0 | ABUTH herbicidal rating (ABUTH (Velvetleaf); rate 0.0315 kg/ha): 9.0 | ABUTH herbicidal rating (ABUTH (Velvetleaf); rate 0.0630 kg/ha): 9.0 | GLXMAW herbicidal rating ([1]; rate 0.0158 kg/ha): 4.5 | GLXMAW herbicidal rating ([1]; rate 0.0315 kg/ha): 4.5 | GLXMAW herbicidal rating ([1]; rate 0.0630 kg/ha): 5.5 | GALAP rating (GALAP (Galium); 0.1250 kg/ha): 0.0 | GALAP rating (GALAP (Galium); 0.2500 kg/ha): 0.0 | AMBEL rating (AMBEL (Ragweed, Common) [2]; 0.1250 kg/ha): 0.0 | AMBEL rating (AMBEL (Ragweed, Common) [2]; 0.2500 kg/ha): 0.0 | CHEAL rating ([3]; 0.1250 kg/ha): 4.0 | CHEAL rating ([3]; 0.2500 kg/ha): 9.0 | AMBEL herbicidal rating (AMBEL (Ragweed, Common) [4]; rate 0.0158 kg/ha): 0.0 | AMBEL herbicidal rating (AMBEL (Ragweed, Common) [4]; rate 0.0315 kg/ha): 0.0 | AMBEL herbicidal rating (AMBEL (Ragweed, Common) [4]; rate 0.0630 kg/ha): 4.0 | ZEAMX herbicidal rating (ZEAMX (Corn, Field); rate 0.0158 kg/ha): 4.0 | ZEAMX herbicidal rating (ZEAMX (Corn, Field); rate 0.0315 kg/ha): 4.0 | ZEAMX herbicidal rating (ZEAMX (Corn, Field); rate 0.0630 kg/ha): 5.0 | CHEAL herbicidal rating ([5]; rate 0.0158 kg/ha): 0.0 | CHEAL herbicidal rating ([5]; rate 0.0315 kg/ha): 3.0 | CHEAL herbicidal rating ([5]; rate 0.0630 kg/ha): 3.0 | Herbicidal rating CYPSE (CYPSE (Flatsedge) [6]; [8]): 0.0 | Herbicidal rating CYPSE (CYPSE (Flatsedge) [6]; [9]): 0.0 | Herbicidal rating CYPSE (CYPSE (Flatsedge) [6]; [10]): 0.0 | Herbicidal rating CYPSE (CYPSE (Flatsedge) [6]; [11]): 0.0 | ECHCG herbicidal rating (ECHCG (Barnyardgrass); rate 0.0158 kg/ha): 0.0 | ECHCG herbicidal rating (ECHCG (Barnyardgrass); rate 0.0315 kg/ha): 0.0 | ECHCG herbicidal rating (ECHCG (Barnyardgrass); rate 0.0630 kg/ha): 0.0 | ORYSAT herbicidal rating (ORYSAT (Rice, Tebonnet); rate 0.0158 kg/ha): 1.0 | ORYSAT herbicidal rating (ORYSAT (Rice, Tebonnet); rate 0.0315 kg/ha): 1.0 | ORYSAT herbicidal rating (ORYSAT (Rice, Tebonnet); rate 0.0630 kg/ha): 2.0 | CASOB rating (CASOB (Sicklepod); 0.1250 kg/ha): 0.0 | CASOB rating (CASOB (Sicklepod); 0.2500 kg/ha): 0.0 | CYPSE herbicidal effect rating (CYPSE (Flatsedge) [7]; 0.0313 kg/ha): 0.0 | CYPSE herbicidal effect rating (CYPSE (Flatsedge) [7]; 0.0625 kg/ha): 0.0 | CYPSE herbicidal effect rating (CYPSE (Flatsedge) [7]; 0.1250 kg/ha): 0.0 | CYPSE herbicidal effect rating (CYPSE (Flatsedge) [7]; 0.2500 kg/ha): 0.0

CCOC(=O)/C=C1/S/C(=N/c2cc(-n3c(=O)cc(C(F)(F)F)n(C)c3=O)c(F)cc2Cl)N(CC(=O)OCC)C1=O [Compound 14]
Herbicidal rating CYPIR (CYPIR (Rice Flatsedge); [12]): 4.0 | Herbicidal rating CYPIR (CYPIR (Rice Flatsedge); [13]): 5.8 | Herbicidal rating CYPIR (CYPIR (Rice Flatsedge); [14]): 6.8 | Herbicidal rating CYPIR (CYPIR (Rice Flatsedge); [15]): 4.5 | ABUTH herbicidal rating (ABUTH (Velvetleaf); rate 0.0156 kg/ha): 9.0 | ABUTH herbicidal rating (ABUTH (Velvetleaf); rate 0.0313 kg/ha): 9.0 | ABUTH herbicidal rating (ABUTH (Velvetleaf); rate 0.0625 kg/ha): 9.0 | ABUTH herbicidal rating (ABUTH (Velvetleaf); rate 0.1250 kg/ha): 9.0 | GLXMAW herbicidal rating ([1]; rate 0.0156 kg/ha): 6.0 | GLXMAW herbicidal rating ([1]; rate 0.0313 kg/ha): 8.0 | GLXMAW herbicidal rating ([1]; rate 0.0625 kg/ha): 9.0 | GLXMAW herbicidal rating ([1]; rate 0.1250 kg/ha): 8.5 | GALAP preemergence herbicidal rating (GALAP (Galium); rate 0.0313 kg/ha): 0.0 | GALAP preemergence herbicidal rating (GALAP (Galium); rate 0.0625 kg/ha): 0.0 | GALAP preemergence herbicidal rating (GALAP (Galium); rate 0.1250 kg/ha): 9.0 | GALAP preemergence herbicidal rating (GALAP (Galium); rate 0.2500 kg/ha): 9.0 | AMBEL preemergence herbicidal rating (AMBEL (Ragweed, Common) [2]; rate 0.0313 kg/ha): 0.0 | AMBEL preemergence herbicidal rating (AMBEL (Ragweed, Common) [2]; rate 0.0625 kg/ha): 1.0 | AMBEL preemergence herbicidal rating (AMBEL (Ragweed, Common) [2]; rate 0.1250 kg/ha): 6.5 | AMBEL preemergence herbicidal rating (AMBEL (Ragweed, Common) [2]; rate 0.2500 kg/ha): 9.0 | AMBEL preemergence herbicidal rating (AMBEL (Ragweed, Common) [2]; rate 0.5000 kg/ha): 9.0 | CHEAL preemergence herbicidal rating ([3]; rate 0.0313 kg/ha): 9.0 | CHEAL preemergence herbicidal rating ([3]; rate 0.0625 kg/ha): 9.0 | CHEAL preemergence herbicidal rating ([3]; rate 0.1250 kg/ha): 9.0 | CHEAL preemergence herbicidal rating ([3]; rate 0.2500 kg/ha): 9.0 | CHEAL preemergence herbicidal rating ([3]; rate 0.5000 kg/ha): 9.0 | AMBEL herbicidal rating (AMBEL (Ragweed, Common) [4]; rate 0.0156 kg/ha): 9.0 | AMBEL herbicidal rating (AMBEL (Ragweed, Common) [4]; rate 0.0313 kg/ha): 9.0 | AMBEL herbicidal rating (AMBEL (Ragweed, Common) [4]; rate 0.0625 kg/ha): 9.0 | AMBEL herbicidal rating (AMBEL (Ragweed, Common) [4]; rate 0.1250 kg/ha): 9.0 | ZEAMX herbicidal rating (ZEAMX (Corn, Field); rate 0.0156 kg/ha): 7.0 | ZEAMX herbicidal rating (ZEAMX (Corn, Field); rate 0.0313 kg/ha): 7.0 | ZEAMX herbicidal rating (ZEAMX (Corn, Field); rate 0.0625 kg/ha): 7.5 | ZEAMX herbicidal rating (ZEAMX (Corn, Field); rate 0.1250 kg/ha): 7.5 | CHEAL herbicidal rating ([5]; rate 0.0156 kg/ha): 9.0 | CHEAL herbicidal rating ([5]; rate 0.0313 kg/ha): 9.0 | CHEAL herbicidal rating ([5]; rate 0.0625 kg/ha): 9.0 | CHEAL herbicidal rating ([5]; rate 0.1250 kg/ha): 9.0 | Herbicidal rating CYPSE (CYPSE (Flatsedge) [6]; [12]): 0.0 | Herbicidal rating CYPSE (CYPSE (Flatsedge) [6]; [13]): 0.0 | Herbicidal rating CYPSE (CYPSE (Flatsedge) [6]; [14]): 1.5 | Herbicidal rating CYPSE (CYPSE (Flatsedge) [6]; [15]): 0.0 | ECHCG herbicidal rating (ECHCG (Barnyardgrass); rate 0.0156 kg/ha): 9.0 | ECHCG herbicidal rating (ECHCG (Barnyardgrass); rate 0.0313 kg/ha): 9.0 | ECHCG herbicidal rating (ECHCG (Barnyardgrass); rate 0.0625 kg/ha): 9.0 | ECHCG herbicidal rating (ECHCG (Barnyardgrass); rate 0.1250 kg/ha): 9.0 | ORYSAT herbicidal rating (ORYSAT (Rice, Tebonnet); rate 0.0156 kg/ha): 3.5 | ORYSAT herbicidal rating (ORYSAT (Rice, Tebonnet); rate 0.0313 kg/ha): 5.5 | ORYSAT herbicidal rating (ORYSAT (Rice, Tebonnet); rate 0.0625 kg/ha): 6.0 | ORYSAT herbicidal rating (ORYSAT (Rice, Tebonnet); rate 0.1250 kg/ha): 8.5 | CASOB preemergence herbicidal rating (CASOB (Sicklepod); rate 0.0313 kg/ha): 0.0 | CASOB preemergence herbicidal rating (CASOB (Sicklepod); rate 0.0625 kg/ha): 1.0 | CASOB preemergence herbicidal rating (CASOB (Sicklepod); rate 0.1250 kg/ha): 1.5 | CASOB preemergence herbicidal rating (CASOB (Sicklepod); rate 0.2500 kg/ha): 2.0 | CASOB preemergence herbicidal rating (CASOB (Sicklepod); rate 0.5000 kg/ha): 5.0 | Herbicidal rating CYPSE (CYPSE (Flatsedge) [7]; 0.0313 kg/ha): 0.0 | Herbicidal rating CYPSE (CYPSE (Flatsedge) [7]; 0.0625 kg/ha): 0.0 | Herbicidal rating CYPSE (CYPSE (Flatsedge) [7]; 0.1250 kg/ha): 3.0 | Herbicidal rating CYPSE (CYPSE (Flatsedge) [7]; 0.2500 kg/ha): 0.0
